Source: BindingDB's records for doi:10.1021/jm00107a033 (Virginia Commonwealth University, 1991)

Assays:
[1] = Binding affinity towards sigma opioid receptor was determined in guinea pig cerebral homogenate using [3H]haloperidol as radioligand
[2] = Binding affinity towards sigma opioid receptor in guinea pig cerebral homogenate using [3H]DTG as radioligand
[3] = Binding affinity towards sigma receptor in guinea pig cerebral homogenate using [3H]DTG as radioligand

| SMILES | Ki [1] [nM] | Ki [2] [nM] | Ki [3] [nM] |
| --- | --- | --- | --- |
| C[C@H](Cc1ccccc1)NCCc1ccccc1 [((R)-1-Methyl-2-phenyl-ethyl)-phenethyl-amine] | 61 | 60 | – |
| CC(Cc1ccccc1)NCCCCc1ccccc1 (stereo not drawn) | – | – | 9.3 |
| C[C@H](Cc1ccccc1)NCc1ccccc1 [N-Benzylamphetamine (Bam)] | – | – | 117 |
| C[C@H](Cc1ccccc1)NCCC(=O)c1ccccc1 | – | – | 56 |
| C[C@@H](Cc1ccccc1)NCCCCc1ccccc1 [((S)-1-Methyl-2-phenyl-ethyl)-(4-phenyl-butyl)-amine] | – | – | 6.6 |
| C[C@H](Cc1ccccc1)NCCOc1ccccc1 | – | – | 45 |
| C=CCN1CCC2(C)c3cc(O)ccc3CC1C2C (stereo not drawn) [3-Allyl-8-hydroxy-6,11-dimethyl-1,2,3,4,5,6-hexahydro-2,6-methano-benzo[d]azocinium] | – | – | 429 |
| CCN[C@H](C)Cc1ccccc1 [Adiparthrol] | – | – | 660 |
| C[C@@H](Cc1ccccc1)NCCCCCc1ccccc1 [((S)-1-Methyl-2-phenyl-ethyl)-(5-phenyl-pentyl)-amine] | – | – | 6.3 |
| C[C@@H](Cc1ccccc1)N(C)CCCCCc1ccccc1 | – | – | 2.6 |
| C[C@@H](Cc1ccccc1)NCCc1ccccc1 [((S)-1-Methyl-2-phenyl-ethyl)-phenethyl-amine] | – | – | 31 |
| C[C@@H](N)Cc1ccccc1 [(R)-amphetamine] | – | – | 46400 |
